Key:
Assay type in all cases: cell-based
Str. mitis = assay: standard test tube serial dilution test, Str. mitis; conditions: Streptococcus mitis, broth serial dilution, read-out: Minimum Inhibitory Concentration
Procedure: (§1) The anti-microbial nature of the instant novel compounds was shown by a standard test tube serial dilution test in which an appropriate number of test tubes of broth containing decreasing concentrations of the test agent was innoculated with the test organism. After a suitable period of incubation, the tubes were examined for the presence or absence of growth. The activity of the test agent was the lowest concentration which inhibited the growth of the organism and is expressed as the minimal inhibitory concentration in ug/ml.

P. ovale = assay: standard test tube serial dilution test, P. ovale; conditions: broth serial dilution, read-out: Minimum Inhibitory Concentration
Procedure: as §1

Ps. aeruginosa = assay: standard test tube serial dilution test, Ps. aeruginosa; conditions: Pseudomonas aeruginosa, broth serial dilution, read-out: Minimum Inhibitory Concentration
Procedure: as §1

E. coli = assay: standard test tube serial dilution test, E. coli; conditions: Escherichia coli, broth serial dilution, read-out: Minimum Inhibitory Concentration
Procedure: as §1

C. albicans = assay: standard test tube serial dilution test, C. albicans; conditions: Candida albicans, broth serial dilution, read-out: Minimum Inhibitory Concentration
Procedure: as §1

S. aureus = assay: standard test tube serial dilution test, S. aureus; conditions: Staphylococcus aureus, broth serial dilution, read-out: Minimum Inhibitory Concentration
Procedure: as §1

T. mentagrophytes = assay: standard test tube serial dilution test, T. mentagrophytes; conditions: Trichophyton mentagrophytes, broth serial dilution, read-out: Minimum Inhibitory Concentration
Procedure: as §1

A. niger = assay: standard test tube serial dilution test, A. niger; conditions: Aspergillus niger, broth serial dilution, read-out: Minimum Inhibitory Concentration
Procedure: as §1

SMILES	MIC (Str. mitis)	MIC (P. ovale)	MIC (Ps. aeruginosa)	MIC (E. coli)	MIC (C. albicans)	MIC (S. aureus)	MIC (T. mentagrophytes)	MIC (A. niger)
CCCCCCCCCCCC[N+](C)(C)CCOC12CC3CC(CC(C3)C1)C2 [C12 H25, 2-(1^1-adamantyloxy)ethyldimethyldodecyl ammonium bromide]	0.19 µg/mL	> 50 µg/mL	> 25 µg/mL	12.5 µg/mL	1.56 µg/mL	0.39 µg/mL	3.12 µg/mL	50 µg/mL
CCCCCCCCCCCCCC[N+](C)(C)CCOC12CC3CC(CC(C3)C1)C2 [C14 H29, 2(1^1 -adamantyloxy)ethyldimethyltetradecylammonium bromide]	0.39 µg/mL	> 50 µg/mL	> 25 µg/mL	12.5 µg/mL	1.56 µg/mL	0.78 µg/mL	6.25 µg/mL	50 µg/mL

Source: patent US3961075A, “Ether-linked quaternary ammonium compositions” (Colgate-Palmolive Company, priority 1975, dated 1976)
